Values of other authors, collected in patent US20030109678A1, “Methods and means for regulation of gene expression” (priority 2000, published 2003).

Target: mutated form of the human estrogen receptor (ER), G521R mutation (Homo sapiens, UniProt P03372, G521R)
Sequence (P03372 whole entry G521R): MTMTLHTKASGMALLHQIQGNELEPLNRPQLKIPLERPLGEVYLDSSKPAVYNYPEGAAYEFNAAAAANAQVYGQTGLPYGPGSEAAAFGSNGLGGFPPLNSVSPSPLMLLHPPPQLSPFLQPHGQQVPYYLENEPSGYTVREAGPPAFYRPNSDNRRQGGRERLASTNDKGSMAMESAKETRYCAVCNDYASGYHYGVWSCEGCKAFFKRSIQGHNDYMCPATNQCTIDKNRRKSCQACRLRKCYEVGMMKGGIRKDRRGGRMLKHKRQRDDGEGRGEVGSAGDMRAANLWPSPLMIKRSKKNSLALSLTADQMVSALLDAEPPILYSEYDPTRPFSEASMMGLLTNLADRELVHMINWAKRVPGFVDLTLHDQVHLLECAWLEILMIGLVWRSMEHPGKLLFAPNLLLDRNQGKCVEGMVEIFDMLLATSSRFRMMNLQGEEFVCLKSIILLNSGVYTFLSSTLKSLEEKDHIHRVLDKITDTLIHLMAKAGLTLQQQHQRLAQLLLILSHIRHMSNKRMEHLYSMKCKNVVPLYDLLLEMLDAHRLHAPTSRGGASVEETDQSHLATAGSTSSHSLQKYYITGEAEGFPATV

4-hydroxytamoxifen
binding by G521R ER: efficiently binds
